Experimental data as given in patent US10533010B2, “Substituted indole Mcl-1 inhibitors” (Vanderbilt University, priority 2014, dated 2020).

What follows are compounds tested against recombinant Mcl-1 (residues 172-327) (Homo sapiens (Human), UniProt Q07820) (assay: Fluorescence polarization anisotropy competition assay (FITC-Bak or FITC-Bim BH3 peptide) with Mcl-1). Conditions: Table 2; Ki bins given in nM; FITC-Bak or FITC-Bim peptide competition; Ki converted from IC50; read-out: Ki for Inhibition of Mcl-1.
Chain of recombinant Mcl-1 (residues 172-327) (Q07820 172-327): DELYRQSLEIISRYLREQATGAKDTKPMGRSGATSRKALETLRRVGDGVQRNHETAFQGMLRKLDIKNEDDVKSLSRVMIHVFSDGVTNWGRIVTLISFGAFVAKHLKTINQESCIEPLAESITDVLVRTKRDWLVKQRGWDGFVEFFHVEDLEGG
Type: binding

| Ki [nM] | Compound |
| --- | --- |
| < 50 | Cc1cc(OCCCc2c3n(c4c(-c5c(C)nn(C)c5C)cccc24)CCCN(Cc2ccc(-c4nnn[nH]4)cc2)C3=O)cc(C)c1Cl [I-88, 2-(4-(1H-tetrazol-5-yl)benzyl)-11-(3-(4-chloro-3,5-dimethylphenoxy)propyl)-7-(1,3,5-trimethyl-1H-pyrazol-4-yl)-2,3,4,5-tetrahydro-1H-[1,4]diazepino[1,2-a]indol-1-one] |
| < 50 | Cc1cc(OCCCc2c3n(c4c(-c5c(C)nn(C)c5C)c(Cl)ccc24)CCCN(c2cc(F)cc(C(=O)O)c2)C3=O)cc(C)c1Cl [I-223, 3-(8-chloro-11-(3-(4-chloro-3,5-dimethylphenoxy)propyl)-1-oxo-7-(1,3,5-trimethyl-1H-pyrazol-4-yl)-4,5-dihydro-1H-[1,4]diazepino[1,2-a]indol-2(3H)-yl)-5-fluorobenzoic acid] |
| < 50 | Cc1cc(OCCCc2c(C(=O)N3CCC(C(=O)O)C3)[nH]c3c(-c4c(C)nn(C)c4C)c(Cl)ccc23)cc(C)c1Cl (stereo not shown) [I-336, 1-(6-chloro-3-(3-(4-chloro-3,5-dimethylphenoxy)propyl)-7-(1,3,5-trimethyl-1H-pyrazol-4-yl)-1H-indole-2-carbonyl)pyrrolidine-3-carboxylic acid] |
| < 50 | Cc1cc(OCCCc2c3n(c4c(-c5c(C)nn(C)c5C)c(Cl)ccc24)[C@H](C)CN(Cc2ccc(C(=O)O)cn2)C3=O)cc(C)c1Cl [I-153, (R)-6-((7-chloro-10-(3-(4-chloro-3,5-dimethylphenoxy)propyl)-4-methyl-1-oxo-6-(1,3,5-trimethyl-1H-pyrazol-4-yl)-3,4-dihydropyrazino[1,2-a]indol-2(1H)-yl)methyl)nicotinic acid] |
| < 50 | Cc1cc(OCCCc2c3n(c4c(-c5c(C)nn(C)c5C)c(Cl)ccc24)CCN(c2cc(NC4CCOCC4)cc(C(=O)O)c2)C3=O)cc(C)c1Cl [I-214, 3-(7-chloro-10-(3-(4-chloro-3,5-dimethylphenoxy)propyl)-1-oxo-6-(1,3,5-trimethyl-1H-pyrazol-4-yl)-3,4-dihydropyrazino[1,2-a]indol-2(1H)-yl)-5-((tetrahydro-2H-pyran-4-yl)amino)benzoic acid] |
| < 50 | Cc1cc(OCCCc2c(C(=O)NCCC(=O)O)[nH]c3c(-c4c(C)n[nH]c4C)cccc23)cc(C)c1Cl [I-23, 3-(3-(3-(4-chloro-3,5-dimethylphenoxy)propyl)-7-(3,5-dimethyl-1H-pyrazol-4-yl)-1H-indole-2-carboxamido)propanoic acid] |
| < 50 | Cc1cc(OCCCc2c(C(=O)Nc3ccc(CC(=O)O)cc3)[nH]c3c(-c4c(C)nn(C)c4C)cccc23)cc(C)c1Cl [I-205, 2-(4-(3-(3-(4-chloro-3,5-dimethylphenoxy)propyl)-7-(1,3,5-trimethyl-1H-pyrazol-4-yl)-1H-indole-2-carboxamido)phenyl)acetic acid] |
| < 50 | Cc1cc(OCCCc2c(C(=O)Nc3ccnc(C(=O)O)c3)[nH]c3c(-c4c(C)nn(C)c4C)c(Cl)ccc23)cc(C)c1Cl [I-180, 4-(6-chloro-3-(3-(4-chloro-3,5-dimethylphenoxy)propyl)-7-(1,3,5-trimethyl-1H-pyrazol-4-yl)-1H-indole-2-carboxamido)picolinic acid] |
| < 50 | Cc1cc(OCCCc2c(C(=O)Nc3cc(NC4CCOCC4)cc(C(=O)O)c3)[nH]c3c(-c4c(C)nn(C)c4C)c(Cl)ccc23)cc(C)c1Cl [I-209, 3-(6-chloro-3-(3-(4-chloro-3,5-dimethylphenoxy)propyl)-7-(1,3,5-trimethyl-1H-pyrazol-4-yl)-1H-indole-2-carboxamido)-5-((tetrahydro-2H-pyran-4-yl)amino)benzoic acid] |

The next lines start with the compound.

| Compound | Ki [nM] |
| --- | --- |
| Cc1cc(OCCCc2c(C(=O)NCc3ccnc(N4CCc5ccccc5C4)c3)[nH]c3c(-c4c(C)nn(C)c4C)cccc23)cc(C)c1Cl [I-263, 3-(3-(4-chloro-3,5-dimethylphenoxy)propyl)-N-((2-(3,4-dihydroisoquinolin-2(1H)-yl)pyridin-4-yl)methyl)-7-(1,3,5-trimethyl-1H-pyrazol-4-yl)-1H-indole-2-carboxamide] | 301 to 500 |
| Cc1cc(OCCCc2c3n(c4c(-c5c(C)nn(C)c5C)c(Cl)ccc24)CCCN(Cc2cc(NCCC(C)C)cc(C(=O)O)c2)C3=O)cc(C)c1Cl [I-328, 3-((8-chloro-11-(3-(4-chloro-3,5-dimethylphenoxy)propyl)-1-oxo-7-(1,3,5-trimethyl-1H-pyrazol-4-yl)-4,5-dihydro-1H-[1,4]diazepino[1,2-a]indol-2(3H)-yl)methyl)-5-(isopentylamino)benzoic acid] | < 50 |
| Cc1cc(OCCCc2c(C(=O)Nc3cccc(C(=O)NS(=O)(=O)c4ccc([N+](=O)[O-])cc4)c3)[nH]c3c(-c4cccnc4C)cccc23)cc(C)c1Cl [I-68, 3-(3-(4-chloro-3,5-dimethylphenoxy)propyl)-7-(2-methylpyridin-3-yl)-N-(3-(((4-nitrophenyl)sulfonyl)carbamoyl)phenyl)-1H-indole-2-carboxamide] | 51 to 100 |
| Cc1cc(OCCCc2c(C(=O)NCc3cc(Br)cc(C(=O)O)c3)[nH]c3c(-c4c(C)nn(C)c4C)c(Cl)ccc23)cc(C)c1Cl [I-370, 3-bromo-5-((6-chloro-3-(3-(4-chloro-3,5-dimethylphenoxy)propyl)-7-(1,3,5-trimethyl-1H-pyrazol-4-yl)-1H-indole-2-carboxamido)methyl)benzoic acid] | < 50 |
| CC/N=C(/NCCCN(C)C)n1nc(C)c(-c2cccc3c(CCCOc4cc(C)c(Cl)c(C)c4)c(C(=O)NCc4cccc(C(=O)O)c4)[nH]c23)c1C [I-70, 3-((3-(3-(4-chloro-3,5-dimethylphenoxy)propyl)-7-(1-(N-(3-(dimethylamino)propyl)-N′-ethylcarbamimidoyl)-3,5-dimethyl-1H-pyrazol-4-yl)-1H-indole-2-carboxamido)methyl)benzoic acid] | 51 to 100 |
| Cc1cc(OCCCc2c(C(=O)NCc3cc(C(=O)O)cc(NCCC(C)C)n3)[nH]c3c(-c4c(C)nn(C)c4C)c(Cl)ccc23)cc(C)c1Cl [I-283, 2-((6-chloro-3-(3-(4-chloro-3,5-dimethylphenoxy)propyl)-7-(1,3,5-trimethyl-1H-pyrazol-4-yl)-1H-indole-2-carboxamido)methyl)-6-(isopentylamino)isonicotinic acid] | < 50 |
| Cc1cc(OCCCc2c3n(c4c(-c5c(C)nn(C)c5C)c(Cl)ccc24)CCCN(Cc2cc(C(=O)O)cc(Cl)n2)C3=O)cc(C)c1Cl [I-298, 2-chloro-6-((8-chloro-1-(3-(4-chloro-3,5-dimethylphenoxy)propyl)-1-oxo-7-(1,3,5-trimethyl-1H-pyrazol-4-yl)-4,5-dihydro-1H-[1,4]diazepino[1,2-a]indol-2(3H)-yl)methyl)isonicotinic acid] | < 50 |
| Cc1cc(OCCCc2c(C(=O)NC3CCN(C(=O)CC(=O)O)CC3)[nH]c3c(-c4c(C)nn(C)c4C)cccc23)cc(C)c1Cl [I-318, 3-(4-(3-(3-(4-chloro-3,5-dimethylphenoxy)propyl)-7-(1,3,5-trimethyl-1H-pyrazol-4-yl)-1H-indole-2-carboxamido)piperidin-1-yl)-3-oxopropanoic acid] | < 50 |
| Cc1cc(OCCCc2c(C(=O)Nc3cc(C(=O)O)c4cc[nH]c4c3)[nH]c3c(-c4c(C)nn(C)c4C)c(Cl)ccc23)cc(C)c1Cl [I-238, 6-(6-chloro-3-(3-(4-chloro-3,5-dimethylphenoxy)propyl)-7-(1,3,5-trimethyl-1H-pyrazol-4-yl)-1H-indole-2-carboxamido)-1H-indole-4-carboxylic acid] | < 50 |
| Cc1cc(OCCCc2c(C(=O)N(C)Cc3cc(C(=O)O)c(C)o3)n(C)c3c(-c4c(C)nn(C)c4C)cccc23)cc(C)c1Cl [I-274, 5-((3-(3-(4-chloro-3,5-dimethylphenoxy)propyl)-N,1-dimethyl-7-(1,3,5-trimethyl-1H-pyrazol-4-yl)-1H-indole-2-carboxamido)methyl)-2-methylfuran-3-carboxylic acid] | 101 to 299 |
| CC[C@H](C)[C@H](NC(=O)c1ccc(CNC(=O)c2[nH]c3c(-c4c(C)nn(C)c4C)cccc3c2CCCOc2cc(C)c(Cl)c(C)c2)o1)C(=O)O [I-270, (5-((3-(3-(4-chloro-3,5-dimethylphenoxy)propyl)-7-(1,3,5-trimethyl-1H-pyrazol-4-yl)-1H-indole-2-carboxamido)methyl)furan-2-carbonyl)-L-isoleucine] | < 50 |
| Cc1cc(OCCCc2c(C(=O)Nc3cncc(C(=O)O)c3)[nH]c3c(-c4c(C)nn(C)c4C)cccc23)cc(C)c1Cl [I-186, 5-(3-(3-(4-chloro-3,5-dimethylphenoxy)propyl)-7-(1,3,5-trimethyl-1H-pyrazol-4-yl)-1H-indole-2-carboxamido)nicotinic acid] | < 50 |

Same assay, conditions: Table 2; Ki bins given in μM; FITC-Bak or FITC-Bim peptide competition; Ki converted from IC50; read-out: Ki for Inhibition of Mcl-1

| Compound | Ki [nM] |
| --- | --- |
| Cc1cc(OCCCc2c(C(=O)N3CCN(c4ccccc4)CC3)[nH]c3ccccc23)cc(C)c1Cl [I-46, (3-(3-(4-chloro-3,5-dimethylphenoxy)propyl)-1H-indol-2-yl)(4-phenylpiperazin-1-yl)methanone] | 1000 to 9990 |
| COC(=O)[C@H](Cc1ccccc1)NC(=O)CNC(=O)c1[nH]c2c(-c3c(C)nn(C)c3C)cccc2c1CCCOc1cc(C)c(Cl)c(C)c1 [I-288, methyl (3-(3-(4-chloro-3,5-dimethylphenoxy)propyl)-7-(1,3,5-trimethyl-1H-pyrazol-4-yl)-1H-indole-2-carbonyl)glycyl-L-phenylalaninate] | 1000 to 9990 |
| Cc1cc(OCCCc2c(C(=O)N3CCN(c4ccc(C(=O)O)cc4)CC3)[nH]c3cc(Cl)ccc23)cc(C)c1Cl [I-51, 4-(4-(6-chloro-3-(3-(4-chloro-3,5-dimethylphenoxy)propyl)-1H-indole-2-carbonyl)piperazin-1-yl)benzoic acid] | 1000 to 9990 |
| CCOC(=O)c1ccc(N2CCN(C(=O)c3[nH]c4cc(Cl)ccc4c3CCCOc3cc(C)c(Cl)c(C)c3)CC2)cc1 [I-50, ethyl 4-(4-(6-chloro-3-(3-(4-chloro-3,5-dimethylphenoxy)propyl)-1H-indole-2-carbonyl)piperazin-1-yl)benzoate] | 10000 to 50000 |
